Columns and labels:
Format in all cases: in vivo
ducksalad [1] = assay: Test Example 2: herbicidal effects during the vegetation period under submerged conditions; details: treatment during the vegetation period under submerged conditions; dose 2.52 g/a
Method in brief: (§1)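 Barnyardgrass, bulrush and ducksalad were co-sown in alluvial soil flooded to 4 cm and grown in a greenhouse at 25 to 30° C. At the 1- or 2-leaf stage, water-diluted emulsifiable concentrates went onto the water surface at set doses (g/a). Herbicidal effect was scored three weeks later on a graded scale.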

bulrush [2] = assay: as above; details: treatment during the vegetation period under submerged conditions; dose 2.52 g/a
Method in brief: as §1

barnyardgrass [3] = assay: as above; details: treatment during the vegetation period under submerged conditions; dose 2.52 g/a
Method in brief: as §1

transplanted rice = assay: Test Example 1: preemergence treatment under submerged conditions, effect on crop; details: dose 2.52 g/a
Method in brief: (§2)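 Submerged conditions, 4 cm water over alluvial soil. Weeds sown and 2.5-leaf rice transplanted; compound applied preemergence to water surface, doses in g per are. Greenhouse, 25 to 30° C., three weeks, then 0–5 mortality rating.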

ducksalad [4] = assay: Test Example 1: herbicidal effects in preemergence treatment under submerged conditions; details: dose 2.52 g/a
Method in brief: as §2

bulrush [5] = assay: as above; details: dose 2.52 g/a
Method in brief: as §2

barnyardgrass [6] = assay: as above; details: dose 2.52 g/a
Method in brief: as §2

wild oat [7] = assay: Test Example 4: herbicidal effect in foliage treatment; details: dose 3.2 g/a, three weeks after the application
Method in brief: (§3)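 Post-emergence foliar spray of water-diluted emulsifiable concentrate at predetermined doses (g per are), applied to plants 14 days after sowing in sterile diluvial soil (greenhouse, 25 to 30° C). Visual scale rating of effect taken 3 weeks later.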

common ragweed [8] = assay: as above; details: dose 3.2 g/a, three weeks after the application
Method in brief: as §3

water foxtail [9] = assay: as above; details: dose 3.2 g/a, three weeks after the application
Method in brief: as §3

posumbu knotweed [10] = assay: as above; details: dose 3.2 g/a, three weeks after the application
Method in brief: as §3

velvetleaf [11] = assay: as above; details: dose 3.2 g/a, three weeks after the application
Method in brief: as §3

redroot pigweed [12] = assay: as above; details: dose 3.2 g/a, three weeks after the application
Method in brief: as §3

large crabgrass [13] = assay: as above; details: dose 3.2 g/a, three weeks after the application
Method in brief: as §3

Italian ryegrass [14] = assay: as above; details: dose 3.2 g/a, three weeks after the application
Method in brief: as §3

beadstraw [15] = assay: as above; details: dose 3.2 g/a, three weeks after the application
Method in brief: as §3

common chickweed [16] = assay: as above; details: dose 3.2 g/a, three weeks after the application
Method in brief: as §3

barnyardgrass [17] = assay: as above; details: dose 3.2 g/a, three weeks after the application
Method in brief: as §3

common lambsquater [18] = assay: as above; details: dose 3.2 g/a, three weeks after the application
Method in brief: as §3

giant foxtail [19] = assay: as above; details: dose 3.2 g/a, three weeks after the application
Method in brief: as §3

wild oat [20] = assay: Test Example 3: herbicidal effects in soil treatment; details: dose 3.2 g/a
Method in brief: (§4)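 Seeds were sown in sterilized diluvial soil and covered with about 1.5 cm of soil. Compounds, formulated as emulsifiable concentrates and diluted with water, were sprayed evenly over the soil surface at set doses in g/a. Herbicidal effect was scored on a rating scale three weeks later.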

common ragweed [21] = assay: as above; details: dose 3.2 g/a
Method in brief: as §4

water foxtail [22] = assay: as above; details: dose 3.2 g/a
Method in brief: as §4

posumbu knotweed [23] = assay: as above; details: dose 3.2 g/a
Method in brief: as §4

velvetleaf [24] = assay: as above; details: dose 3.2 g/a
Method in brief: as §4

redroot pigweed [25] = assay: as above; details: dose 3.2 g/a
Method in brief: as §4

large crabgrass [26] = assay: as above; details: dose 3.2 g/a
Method in brief: as §4

Italian ryegrass [27] = assay: as above; details: dose 3.2 g/a
Method in brief: as §4

beadstraw [28] = assay: as above; details: dose 3.2 g/a
Method in brief: as §4

common chickweed [29] = assay: as above; details: dose 3.2 g/a
Method in brief: as §4

barnyardgrass [30] = assay: as above; details: dose 3.2 g/a
Method in brief: as §4

common lambsquater [31] = assay: as above; details: dose 3.2 g/a
Method in brief: as §4

giant foxtail [32] = assay: as above; details: dose 3.2 g/a
Method in brief: as §4

## CN1COCN(Cc2ccccc2N(C(=O)OCCCl)S(=O)(=O)C(F)(F)F)C1=O [IV-3]
Ducksalad [1]
  C: ducksalad, herbicidal effect (evaluation scale 0-5): 4 (mortality of at least 70% and less than 90%)
Bulrush [2]
  B: bulrush, herbicidal effect (evaluation scale 0-5): 5 (mortality of 90% or above (nearly complete death))
Barnyardgrass [3]
  A: barnyardgrass, herbicidal effect (evaluation scale 0-5): 5 (mortality of 90% or above (nearly complete death))
Transplanted rice
  a: transplanted rice, effect on crop (evaluation scale 0-5): 0 (mortality of less than 5% (almost ineffective))
Ducksalad [4]
  C: ducksalad, herbicidal effect (evaluation scale 0-5): 5 (mortality of 90% or above (nearly complete death))
Bulrush [5]
  B: bulrush, herbicidal effect (evaluation scale 0-5): 5 (mortality of 90% or above (nearly complete death))
Barnyardgrass [6]
  A: barnyardgrass, herbicidal effect (evaluation scale 0-5): 5 (mortality of 90% or above (nearly complete death))
Wild oat [7]
  F: wild oat, herbicidal effect: 0 (mortality of less than 5% (almost ineffective))
Common ragweed [8]
  J: common ragweed, herbicidal effect: 1 (mortality of at least 5% and less than 20%)
Water foxtail [9]
  G: water foxtail, herbicidal effect: 5 (mortality of 90% or above (nearly complete death))
Posumbu knotweed [10]
  M: posumbu knotweed, herbicidal effect: 0 (mortality of less than 5% (almost ineffective))
Velvetleaf [11]
  I: velvetleaf, herbicidal effect: 3 (mortality of at least 40% and less than 70%)
Redroot pigweed [12]
  K: redroot pigweed, herbicidal effect: 0 (mortality of less than 5% (almost ineffective))
Large crabgrass [13]
  D: large crabgrass, herbicidal effect: 4 (mortality of at least 70% and less than 90%)
Italian ryegrass [14]
  H: Italian ryegrass, herbicidal effect: 1 (mortality of at least 5% and less than 20%)
Beadstraw [15]
  O: beadstraw, herbicidal effect: 0 (mortality of less than 5% (almost ineffective))
Common chickweed [16]
  N: common chickweed, herbicidal effect: 5 (mortality of 90% or above (nearly complete death))
Barnyardgrass [17]
  A: barnyardgrass, herbicidal effect: 4 (mortality of at least 70% and less than 90%)
Common lambsquater [18]
  L: common lambsquater, herbicidal effect: 0 (mortality of less than 5% (almost ineffective))
Giant foxtail [19]
  E: giant foxtail, herbicidal effect: 3 (mortality of at least 40% and less than 70%)
Wild oat [20]
  herbicidal effect, F: wild oat: 0 (mortality of less than 5% (almost ineffective))
Common ragweed [21]
  herbicidal effect, J: common ragweed: 0 (mortality of less than 5% (almost ineffective))
Water foxtail [22]
  herbicidal effect, G: water foxtail: 5 (mortality of 90% or above (nearly complete death))
Posumbu knotweed [23]
  herbicidal effect, M: posumbu knotweed: 0 (mortality of less than 5% (almost ineffective))
Velvetleaf [24]
  herbicidal effect, I: velvetleaf: 5 (mortality of 90% or above (nearly complete death))
Redroot pigweed [25]
  herbicidal effect, K: redroot pigweed: 0 (mortality of less than 5% (almost ineffective))
Large crabgrass [26]
  herbicidal effect, D: large crabgrass: 4 (mortality of at least 70% and less than 90%)
Italian ryegrass [27]
  herbicidal effect, H: Italian ryegrass: 0 (mortality of less than 5% (almost ineffective))
Beadstraw [28]
  herbicidal effect, O: beadstraw: 0 (mortality of less than 5% (almost ineffective))
Common chickweed [29]
  herbicidal effect, N: common chickweed: 0 (mortality of less than 5% (almost ineffective))
Barnyardgrass [30]
  herbicidal effect, A: barnyardgrass: 5 (mortality of 90% or above (nearly complete death))
Common lambsquater [31]
  herbicidal effect, L: common lambsquater: 0 (mortality of less than 5% (almost ineffective))
Giant foxtail [32]
  herbicidal effect, E: giant foxtail: 3 (mortality of at least 40% and less than 70%)

## CN1COCN(Cc2ccccc2NS(=O)(=O)C(F)(F)F)C1=O [IV-1]
Ducksalad [1]
  C: ducksalad, herbicidal effect (evaluation scale 0-5): 4 (mortality of at least 70% and less than 90%)
Bulrush [2]
  B: bulrush, herbicidal effect (evaluation scale 0-5): 5 (mortality of 90% or above (nearly complete death))
Barnyardgrass [3]
  A: barnyardgrass, herbicidal effect (evaluation scale 0-5): 4 (mortality of at least 70% and less than 90%)
Transplanted rice
  a: transplanted rice, effect on crop (evaluation scale 0-5): 0 (mortality of less than 5% (almost ineffective))
Ducksalad [4]
  C: ducksalad, herbicidal effect (evaluation scale 0-5): 4 (mortality of at least 70% and less than 90%)
Bulrush [5]
  B: bulrush, herbicidal effect (evaluation scale 0-5): 5 (mortality of 90% or above (nearly complete death))
Barnyardgrass [6]
  A: barnyardgrass, herbicidal effect (evaluation scale 0-5): 5 (mortality of 90% or above (nearly complete death))
Wild oat [7]
  F: wild oat, herbicidal effect: 0 (mortality of less than 5% (almost ineffective))
Common ragweed [8]
  J: common ragweed, herbicidal effect: 1 (mortality of at least 5% and less than 20%)
Water foxtail [9]
  G: water foxtail, herbicidal effect: 5 (mortality of 90% or above (nearly complete death))
Posumbu knotweed [10]
  M: posumbu knotweed, herbicidal effect: 0 (mortality of less than 5% (almost ineffective))
Velvetleaf [11]
  I: velvetleaf, herbicidal effect: 5 (mortality of 90% or above (nearly complete death))
Redroot pigweed [12]
  K: redroot pigweed, herbicidal effect: 0 (mortality of less than 5% (almost ineffective))
Large crabgrass [13]
  D: large crabgrass, herbicidal effect: 4 (mortality of at least 70% and less than 90%)
Italian ryegrass [14]
  H: Italian ryegrass, herbicidal effect: 3 (mortality of at least 40% and less than 70%)
Beadstraw [15]
  O: beadstraw, herbicidal effect: 3 (mortality of at least 40% and less than 70%)
Common chickweed [16]
  N: common chickweed, herbicidal effect: 1 (mortality of at least 5% and less than 20%)
Barnyardgrass [17]
  A: barnyardgrass, herbicidal effect: 4 (mortality of at least 70% and less than 90%)
Common lambsquater [18]
  L: common lambsquater, herbicidal effect: 0 (mortality of less than 5% (almost ineffective))
Giant foxtail [19]
  E: giant foxtail, herbicidal effect: 3 (mortality of at least 40% and less than 70%)
Wild oat [20]
  herbicidal effect, F: wild oat: 0 (mortality of less than 5% (almost ineffective))
Common ragweed [21]
  herbicidal effect, J: common ragweed: 2 (mortality of at least 20% and less than 40%)
Water foxtail [22]
  herbicidal effect, G: water foxtail: 5 (mortality of 90% or above (nearly complete death))
Posumbu knotweed [23]
  herbicidal effect, M: posumbu knotweed: 0 (mortality of less than 5% (almost ineffective))
Velvetleaf [24]
  herbicidal effect, I: velvetleaf: 3 (mortality of at least 40% and less than 70%)
Redroot pigweed [25]
  herbicidal effect, K: redroot pigweed: 0 (mortality of less than 5% (almost ineffective))
Large crabgrass [26]
  herbicidal effect, D: large crabgrass: 4 (mortality of at least 70% and less than 90%)
Italian ryegrass [27]
  herbicidal effect, H: Italian ryegrass: 0 (mortality of less than 5% (almost ineffective))
Beadstraw [28]
  herbicidal effect, O: beadstraw: 0 (mortality of less than 5% (almost ineffective))
Common chickweed [29]
  herbicidal effect, N: common chickweed: 0 (mortality of less than 5% (almost ineffective))
Barnyardgrass [30]
  herbicidal effect, A: barnyardgrass: 5 (mortality of 90% or above (nearly complete death))
Common lambsquater [31]
  herbicidal effect, L: common lambsquater: 0 (mortality of less than 5% (almost ineffective))
Giant foxtail [32]
  herbicidal effect, E: giant foxtail: 3 (mortality of at least 40% and less than 70%)
